Measurements taken from patent US9873709B2 (priority 2013, dated 2018).
Counter-ions that a name gives are not always drawn.

System: JAK1-dependent STAT6 phosphorylation downstream of IL-13 stimulation in TF-1 human erythroleukemia cells
Test: cells
Conditions: TF-1, read-out: IL-13-pSTAT6 IC50

| SMILES | IC50 [nM] |
| --- | --- |
| NCC1CCN(C(=O)c2ccc(Nc3nc4c(N5CCC(O)(c6ccc(Cl)cc6)CC5)cccn4n3)cc2)CC1 [Example 1-193, [4-(aminomethyl)-1-piperidyl]-[4-[[8-[4-(4-chlorophenyl)-4-hydroxy-1-piperidyl]-[1,2,4]triazolo[1,5-a]pyridin-2-yl]amino]phenyl] methanone] | 249 |
| O=C(NC1CCNCC1)c1ccc(Nc2nc3c(N4CCC(O)(c5ccc(Cl)cc5)CC4)cccn3n2)cc1 [Example 1-181, 4-[[8-[4-(4-chlorophenyl)-4-hydroxy-1-piperidyl]-[1,2,4]triazolo[1,5-a]pyridin-2-yl]amino]-N-(4-piperidyl)benzamide] | 181 |
| O=C(c1ccc(Nc2nc3c(N4CCC(O)(c5ccc(Cl)cc5)CC4)cccn3n2)cc1)N1CC2(CCNCC2)C1 [Example 1-199, [4-[[8-[4-(4-chlorophenyl)-4-hydroxy-1-piperidyl]-[1,2,4]triazolo[1,5-a]pyridin-2-yl]amino]phenyl]-(2,7-diazaspiro[3.5]nonan-2-yl)methanone] | 106 |
| O=C(c1ccc(Nc2nc3c(N4CCC(O)(c5ccc(Cl)cc5)CC4)cccn3n2)cc1)N1CCCC12CCCNC2 (stereo not drawn) [Example 1-233, [4-[[8-[4-(4-chlorophenyl)-4-hydroxy-1-piperidyl]-[1,2,4]triazolo[1,5-a]pyridin-2-yl]amino]phenyl]-(1,9-diazaspiro[4.5]decan-1-yl)methanone] | 164 |
| O=C(c1ccc(Nc2nc3c(N4CCC(O)(c5ccc(Cl)cc5)CC4)cccn3n2)cc1)N1CCCCC1Cc1ccccn1 (stereo not drawn) [Example 1-121, [4-[[8-[4-(4-chlorophenyl)-4-hydroxy-1-piperidyl]-[1,2,4]triazolo[1,5-a]pyridin-2-yl]amino]phenyl]-[2-(2-pyridylmethyl)-1-piperidyl]methanone] | 131 |
| O=C(c1ccc(Nc2nc3c(N4CCC(O)(c5ccc(Cl)cc5)CC4)cccn3n2)cc1)N1CCCN(c2ccncc2)CC1 [Example 1-114, [4-[[8-[4-(4-chlorophenyl)-4-hydroxy-1-piperidyl]-[1,2,4]triazolo[1,5-a]pyridin-2-yl]amino]phenyl]-[4-(4-pyridyl)-1,4-diazepan-1-yl]methanone] | 29.7 |
| O=C(NCC1CCCNC1)c1ccc(Nc2nc3c(N4CCC(O)(c5ccc(Cl)cc5)CC4)cccn3n2)cc1 (stereo not drawn) [Example 1-183, 4-[[8-[4-(4-chlorophenyl)-4-hydroxy-1-piperidyl]-[1,2,4]triazolo[1,5-a]pyridin-2-yl]amino]-N-(3-piperidylmethyl) benzamide] | 536 |
| O=C(CCC(F)(F)F)N1CC=C(c2cccn3nc(Nc4ccc(C(=O)N5CCCC(c6cc7cccnc7[nH]6)C5)cc4)nc23)CC1 (stereo not drawn) [Example 2-103, 4,4,4-trifluoro-1-[4-[2-[4-[3-(1H-pyrrolo[2,3-b]pyridin-2-yl)piperidine-1-carbonyl]anilino]-[1,2,4]triazolo[1,5-a]pyridin-8-yl]-3,6-dihydro-2H-pyridin-1-yl]butan-1-one] | 145 |
| Cc1ccnc(CNC(=O)c2ccc(Nc3nc4c(C5=CCN(C(=O)CCC(F)(F)F)CC5)cccn4n3)cc2)c1 [Example 2-41, N-[(4-methyl-2-pyridyl)methyl]-4-[[8-[1-(4,4,4-trifluorobutanoyl)-3,6-dihydro-2H-pyridin-4-yl]-[1,2,4]triazolo[1,5-a]pyridin-2-yl]amino]benzamide] | 5.2 |
| CN(CCc1ccncc1)C(=O)c1ccc(Nc2nc3c(C4=CCN(C(=O)CCC(F)(F)F)CC4)cccn3n2)cc1 [Example 2-96, N-methyl-N-[2-(4-pyridyl)ethyl]-4-[[8-[1-(4,4,4-trifluorobutanoyl)-3,6-dihydro-2H-pyridin-4-yl]-[1,2,4]triazolo[1,5-a]pyridin-2-yl]amino]benzamide] | 5.2 |
| O=C(CCC(F)(F)F)N1CC=C(c2cccn3nc(Nc4ccc(C(=O)N5CC6CNCC(C5)O6)cc4)nc23)CC1 [Example 2-37, 4,4,4-trifluoro-1-[4-[2-[4-(9-oxa-3,7-diazabicyclo[3.3.1]nonane-3-carbonyl)anilino]-[1,2,4]triazolo[1,5-a]pyridin-8-yl]-3,6-dihydro-2H-pyridin-1-yl]butan-1-one] | 85.4 |
| CN1CCC(N(C)C(=O)c2ccc(Nc3nc4c(C5=CCN(C(=O)CC(C)(C)C)CC5)cccn4n3)cc2)CC1 [Example 2-54, 4-[[8-[1-(3,3-dimethylbutanoyl)-3,6-dihydro-2H-pyridin-4-yl]-[1,2,4]triazolo[1,5-a]pyridin-2-yl]amino]-N-methyl-N-(1-methyl-4-piperidyl)benzamide] | 16.3 |
| CCOC(=O)N1CC=C(c2cccn3nc(Nc4ccc(C(=O)N5CCCC5c5ccc(C)cn5)cc4)nc23)CC1 (stereo not drawn) [Example 2-67, ethyl 4-[2-[4-[2-(5-methyl-2-pyridyl)pyrrolidine-1-carbonyl]anilino]-[1,2,4]triazolo[1,5-a]pyridin-8-yl]-3,6-dihydro-2H-pyridine-1-carboxylate] | 40.9 |

Next, values leading:

| IC50 [nM] | SMILES |
| --- | --- |
| 40.4 | CN(Cc1ccc(N(C)C)cc1)C(=O)c1ccc(Nc2nc3c(C4=CCN(C(=O)CCC(F)(F)F)CC4)cccn3n2)cc1 [Example 2-406, N-[[4-(dimethylamino)phenyl]-methyl]-N-methyl-4-[[8-[1-(4,4,4-trifluorobutanoyl)-3,6-dihydro-2H-pyridin-4-yl]-[1,2,4]triazolo[1,5-a]pyridin-2-yl]amino]benzamide] |
| 24.3 | CC1CNCCN1C(=O)c1ccc(Nc2nc3c(C4=CCN(C(=O)CCC(F)(F)F)CC4)cccn3n2)cc1 (stereo not drawn) [Example 2-319, 4,4,4-trifluoro-1-[4-[2-[4-(2-methylpiperazine-1-carbonyl)anilino]-[1,2,4]triazolo[1,5-a]pyridin-8-yl]-3,6-dihydro-2H-pyridin-1-yl]butan-1-one] |
| 383 | CCOC(=O)N1CC=C(c2cccn3nc(Nc4ccc(C(=O)NCC5CCNC5)cc4)nc23)CC1 (stereo not drawn) [Example 2-296, ethyl 4-[2-[4-(pyrrolidin-3-ylmethylcarbamoyl)anilino]-[1,2,4]triazolo[1,5-a]pyridin-8-yl]-3,6-dihydro-2H-pyridine-1-carboxylate] |
| 178 | O=C(CCC(F)(F)F)N1CC=C(c2cccn3nc(Nc4ccc(C(=O)N5CCCC(O)(CN6CCCC6)CC5)cc4)nc23)CC1 (stereo not drawn) [Example 2-390, 4,4,4-trifluoro-1-[4-[2-[4-[4-hydroxy-4-(pyrrolidin-1-ylmethyl)azepane-1-carbonyl]anilino]-[1,2,4]triazolo[1,5-a]pyridin-8-yl]-3,6-dihydro-2H-pyridin-1-yl]butan-1-one] |
| 438 | CCOC(=O)N1CC=C(c2cccn3nc(Nc4ccc(C(=O)NCC5CC56CCNCC6)cc4)nc23)CC1 (stereo not drawn) [Example 2-306, ethyl 4-[2-[4-(6-azaspiro[2.5]octan-2-ylmethylcarbamoyl)anilino]-[1,2,4]triazolo[1,5-a]pyridin-8-yl]-3,6-dihydro-2H-pyridine-1-carboxylate] |
| 268 | CCOC(=O)N1CC=C(c2cccn3nc(Nc4ccc(C(=O)NC5CCNC5)cc4)nc23)CC1 (stereo not drawn) [Example 2-231, ethyl 4-[2-[4-(pyrrolidin-3-ylcarbamoyl)anilino]-[1,2,4]triazolo[1,5-a]pyridin-8-yl]-3,6-dihydro-2H-pyridine-1-carboxylate] |
| 171 | O=C(CCC(F)(F)F)N1CC=C(c2cccn3nc(Nc4ccc(C(=O)N5CCOC6CCNCC65)cc4)nc23)CC1 (stereo not drawn) [Example 2-453, 1-[4-[2-[4-(2,3,4a,5,6,7,8,8a-octahydropyrido[4,3-b][1,4]oxazine-4-carbonyl)anilino]-[1,2,4]triazolo[1,5-a]pyridin-8-yl]-3,6-dihydro-2H-pyridin-1-yl]-4,4,4-trifluoro-butan-1one] |
| 28.4 | CN1CCC(N(C)C(=O)c2ccc(Nc3nc4c(C5=CCN(C(=O)CC(F)(F)F)CC5)cccn4n3)cc2)CC1 [Example 2-163, N-methyl-N-(1-methyl-4-piperidyl)-4-[[8-[1-(3,3,3-trifluoropropanoyl)-3,6-dihydro-2H-pyridin-4-yl]-[1,2,4]triazolo[1,5-a]pyridin-2-yl]amino]benzamide] |
| 8570 | CNC(=O)N1CC=C(c2cccn3nc(Nc4ccc(C(=O)N(C)C5CCN(C)CC5)cc4)nc23)CC1 [Example 2-106, N-methyl-4-[2-[4-[methyl-(1-methyl-4-piperidyl)carbamoyl]anilino]-[1,2,4]triazolo[1,5-a]pyridin-8-yl]-3,6-dihydro-2H-pyridine-1-carboxamide; hydrochloride] |
| 376 | O=C(CCC(F)(F)F)N1CC=C(c2cccn3nc(Nc4ccc(C(=O)N5CCCC6(CCNCC6)C5)cc4)nc23)CC1 [Example 2-382, 1-[4-[2-[4-(2,9-diazaspiro[5.5]undecane-2-carbonyl)anilino]-[1,2,4]triazolo[1,5-a]pyridin-8-yl]-3,6-dihydro-2H-pyridin-1-yl]-4,4,4-trifluoro-butan-1-one] |
| 9.8 | CN1CCC(N(C)C(=O)c2ccc(Nc3nc4c(C5=CCN(C(=O)OCC(F)(F)F)CC5)cccn4n3)cc2)CC1 [Example 2-108, 2,2,2-trifluoroethyl 4-[2-[4-[methyl-(1-methyl-4-piperidyl)carbamoyl]anilino]-[1,2,4]triazolo[1,5-a]pyridin-8-yl]-3,6-dihydro-2H-pyridine-1-carboxylate] |
| 48.8 | CCOC(=O)N1CC=C(c2cccn3nc(Nc4ccc(C(=O)N5CC6CN(C)CC(C5)O6)cc4)nc23)CC1 [Example 2-123, ethyl 4-[2-[4-(7-methyl-9-oxa-3,7-diazabicyclo[3.3.1]nonane-3-carbonyl)anilino]-[1,2,4]triazolo[1,5-a]pyridin-8-yl]-3,6-dihydro-2H-pyridine-1-carboxylate] |
| 282 | O=C(CCC(F)(F)F)N1CC=C(c2cccn3nc(Nc4ccc(C(=O)N5CCC6(CNC6)C5)cc4)nc23)CC1 [Example 2-379, 1-[4-[2-[4-(2,6-diazaspiro[3,4]octane-6-carbonyl)anilino]-[1,2,4]triazolo[1,5-a]pyridin-8-yl]-3,6-dihydro-2H-pyridin-1-yl]-4,4,4-trifluoro-butan-1-one] |
| 6 | Cc1cccc(C(C)NC(=O)c2ccc(Nc3nc4c(C5=CCN(C(=O)CCC(F)(F)F)CC5)cccn4n3)cc2)n1 (stereo not drawn) [Example 2-401, N-[1-(6-methyl-2-pyridyl)ethyl]-4-[[8-[1-(4,4,4-trifluorobutanoyl)-3,6-dihydro-2H-pyridin-4-yl]-[1,2,4]triazolo[1,5-a]pyridin-2-yl]amino]benzamide] |
